# Assay results taken from US20160175308A1, “THERAPEUTIC AGENTS FOR MODULATING THYMIC FUNCTION AND/OR GROWTH AND/OR TREATING VARIOUS DISORDERS” (UCL BUSINESS PLC, priority 2013, published 2016).
# Columns and labels:
# Assay type in all cases: in vivo, mouse
# C57/BI6N wildtype mice [1] = experiment: Lapatinib treatment of geriatric mice: thymus size/weight; conditions: 18 month old mice, 2.5 mg/day lapatinib oral gavage 5x/week for 5 weeks vs DMSO control, n=10/group, p<0.05
# C57/BI6N wildtype mice [2] = experiment: Lapatinib treatment of geriatric mice: thymus histology and BrdU immunohistochemistry; conditions: lapatinib vs control
# Experimental: Eighteen month old C57/BI6N wildtype mice used in Lapatinib studies were purchased from Charles River Laboratories (UK). All mice were housed on a 12 hour light/dark cycle, in individually ventilated cages with access to standard rodent diet (Harlan, UK) and tap water ad libitum. Mice were euthanized by intraperitoneal injection of 0.2 mL sodium pentobarbital (Euthatal, Merial Animal Health, UK).
# (§1) Dox was administered ad libitum in a foil-wrapped standard drinking bottle; fresh Dox was given every 48 hours. 300 mg Lapatinib (#J62401, Alfa Aesar, USA) was prepared in 12 mL DMSO (#472301, Sigma, UK) at a final concentration of 25 mg/mL. Mice were given 2.5 mg (100 µL) Lapatinib or an equivalent dose of DMSO alone 5 times per week for 4 weeks by oral gavage. One hour prior to euthanasia all mice for subsequent histological analysis were injected with 150 μL of 10 mg/mL BrdU solution (Invitrogen, UK) to label proliferating cells.
# All cell suspensions (thymus, lymph node, blood) were diluted to 1 million cells/mL for antibody staining and flow cytometry analysis. Antibodies for flow cytometry analysis were as follows: CD3-FITC (17a2, Invitrogen, UK), CD4-PE (I3t4, BD Pharmingen, UK), CD8a-Q605 (53-6.7, eBioscience, UK), CD19-A421 (6D5, Biolegend, UK), CD11b-A421 (eBioscience, UK), Ter119-A421 (TER119, eBioscience, UK), CD47-APC780 (1M7, eBioscience, UK), CD25-A660 (7D4, eBioscience, UK), Nk1.1-APC780 (PK136, eBioscience, UK), NkP46-a660 (29a1.4, eBioscience, UK). All antibodies were diluted to 2 μL/10̂6 cells in 1 mL final volume; unstained and single antibody stained controls were used to set all voltage and gate compensations. Antibody staining was for 30 minutes at 4 degrees Celsius, after which time cells were centrifuged at 1250 rpm for 5 minutes and cell pellets resuspended in 1 mL RPMI 1640. All flow cytometry analysis was performed on either an LSR2 or LSR Fortessa flow cytometry system. A minimum of 10,000 events was collected for each analysis (phenotype, T cell developmental stage, peripheral blood and lymph node cell analysis). […]
# C57/BI6N wildtype mice [3] = experiment: Lapatinib treatment of elderly mice: thymus cell counts and flow cytometry of T lymphocyte populations; conditions: n=5/group
# Experimental: […] All mice were housed on a 12 hour light/dark cycle, in individually ventilated cages with access to standard rodent diet (Harlan, UK) and tap water ad libitum. Mice were euthanized by intraperitoneal injection of 0.2 mL sodium pentobarbital (Euthatal, Merial Animal Health, UK).
# as §1
# Thymus and lymph nodes were prepared for flow cytometry by incubation in a 2 mL solution of RPMI […] (Invitrogen, UK) containing Liberase TL (0.3 mg/mL; Roche, Germany) plus DNAse I (0.2 mg/ml, Roche, Germany) for 30 minutes at 37 degrees Celsius. Thymus and lymph node tissue was then macerated through a […] filter (BD, USA) and enzymes inactivated by further washing with 30 mL PBS (Invitrogen, UK) plus 5 mM EDTA (Sigma, UK). This single cell suspension was centrifuged for 5 minutes at 1250 rpm, the supernatant removed, and the cell pellet resuspended in 3 mL RPMI 1640 (lymph nodes) or 5 mL RPMI 1640 (thymus). Total cell counts were obtained using a Millicell automated hematocytometer. Blood cells were prepared for flow cytometry by direct blood collection from the descending aorta in a capillary Microvette tube containing EDTA (CB 300 K2E, Sarstedt, Germany), elimination of red blood cells using lysis buffer (R7757, Sigma, UK) and dilution in 30 mL RPMI 1640. Blood cells were then pelleted by centrifugation as above and resuspended in 20 mL RPMI 1640 and cell counts obtained using a Millicell automated hematocytometer.
# All cell suspensions (thymus, lymph node, blood) were diluted to 1 million cells/mL for antibody staining and flow cytometry analysis. Antibodies for flow cytometry analysis were as follows: CD3-FITC (17a2, Invitrogen, UK), CD4-PE (I3t4, BD Pharmingen, UK), CD8a-Q605 (53-6.7, eBioscience, UK), CD19-A421 (6D5, Biolegend, UK), CD11b-A421 (eBioscience, UK), Ter119-A421 (TER119, eBioscience, UK), CD47-APC780 (1M7, eBioscience, UK), CD25-A660 (7D4, eBioscience, UK), Nk1.1-APC780 (PK136, eBioscience, UK), NkP46-a660 (29a1.4, eBioscience, UK). All antibodies were diluted to 2 μL/10̂6 cells in 1 mL final volume; unstained and single antibody stained controls were used to set all voltage and gate compensations. Antibody staining was for 30 minutes at 4 degrees Celsius, after which time cells were centrifuged at 1250 rpm for 5 minutes and cell pellets resuspended in 1 mL RPMI 1640. All flow cytometry analysis was performed on either an LSR2 or LSR Fortessa flow cytometry system. A minimum of 10,000 events was collected for each analysis (phenotype, T cell developmental stage, peripheral blood and lymph node cell analysis). All experiments represent at least an n=4 for each condition and all analyses were done using FlowJo software. Thymus tissue sections were prepared for BrdU immunohistochemistry by dewaxing using an automated tissue staining system (TissueTek), blocking for 1 hour at room temperature in blocking solution (PBS containing 10% fetal bovine serum (10270-106, Invitrogen, UK) plus fish skin gelatin (G7765, Sigma, UK)). A BrdU primary antibody (rat, Covance, UK) was diluted in blocking solution and slides were incubated overnight in this antibody solution at 4 degrees Celsius. Slides were then washed in PBS and an anti-rat Alexa 555 secondary antibody (Invitrogen, UK) was applied in blocking solution for 3 hours at room temperature, washed, and slides coverslipped using Mowiol mounting media.
# [4] = 15-18 month old mice vs DMSO treated controls
# [5] = 15 month old mice, CD4/CD8/lineage negative thymocytes, vs DMSO
compound,measurement,setting,value
"CS(=O)(=O)CCNCc1ccc(-c2ccc3ncnc(Nc4ccc(OCc5cccc(F)c5)c(Cl)c4)c3c2)o1 [Lapatinib, N-[3-chloro-4-[(3-fluorophenyl)methoxy]phenyl]-6-[5-[(2-methylsulfonylethylamino)methyl]-2-furyl]quinazolin-4-amine]",thymus size / thymus weight,C57/BI6N wildtype mice [1],increase thymus weight
same,thymus size / thymus weight,C57/BI6N wildtype mice [1]; listed as lapatinib,increases thymus size
same,BrdU cell abundance (thymocyte proliferation),"C57/BI6N wildtype mice [2]; BrdU staining, n=5/treatment type, p<0.05",statistically significant increase in thymocyte proliferation
same,thymus histological appearance (cortico-medullary boundaries),C57/BI6N wildtype mice [2]; H&E sections,restored thymic cortico-medullary boundaries and improved overall thymus histological appearance
same,thymus involution,C57/BI6N wildtype mice [2]; elderly mice,reverses thymus involution
same,CD4 T cell production,C57/BI6N wildtype mice [3]; [4],trend towards increased
same,CD8 T cell production,C57/BI6N wildtype mice [3]; [4],trend towards increased
same,DN-T T cell production,C57/BI6N wildtype mice [3]; [4],trend towards increased
same,"production of immature (double positive, DP-T) T lymphocytes",C57/BI6N wildtype mice [3]; [4],increases production
same,thymus cell abundance,C57/BI6N wildtype mice [3]; [4],increased thymus cell abundance
same,DN1 (CD44+/CD25−) immature T cell abundance,C57/BI6N wildtype mice [3]; [5],significantly reduced
same,DN2 (CD44+/CD25+) immature T cell abundance,C57/BI6N wildtype mice [3]; [5],significantly reduced
same,DN4 (CD44/CD25 negative) cell abundance,C57/BI6N wildtype mice [3]; [5],increased
